From patent US5547972A, “Therapeutic agents useful for treating inflammatory diseases” (The Boots Company PLC, priority 1991, dated 1996)
Counter-ions that a name gives are not always drawn. Like-named read-outs stand apart in the source and are kept apart here.

How the values were obtained:
[1] = system: Carrageenan-induced rat paw oedema; experiment: Test B: Carrageenan-induced rat paw oedema test; format: in vivo, rat (female); details: inhibition of paw oedema, 1 h before carrageenan, 3 h after injection; for inhibition in vivo at 100 mg/kg: Rattus norvegicus, po, 3 h; for Test B % inhibition at 100 mg/kg: oral
Experimental: Carrageenan-induced rat paw oedema test
Female rats, weight range 125-150 g were fasted overnight. One of the hind legs of each animal was marked with a line at the connection between the cuboid/navicular and calcaneus/talus bones. Groups of six rats were orally dosed at 10 ml/kg, in random order, with a given dose of the test compound given as a solution or suspension in 10% (w/v) aqueous acacia solution.
One hour after dosing, 0.1 ml of 1% (w/v) sterile carrageenan λ in normal saline was injected deeply into the plantar surface of the marked hind foot of each rat. The volume of the foot (up to the marked line) was measured immediately after injection using duplicate water displacement readings. Three hours after injection the foot volume was measured again and the percentage increase in foot volume relative to the initial reading was calculated.
The increase in foot volume (i.e. the degree of oedema) in drug treated animals when compared with that in the drug untreated control gave the degree of inhibition of paw oedema by the drug.
Compounds were considered to be active in this test if they produced a 20% or greater inhibition of paw oedema in at least two out of three tests after oral dosing at 100 mg/kg. Statistical significance was assessed using the Student't test for single dose studies and Dunnett's test for multiple dose studies. More advantageous compounds were active in both Tests A and B,

[2] = system: Zymosan Stimulated Macrophaqes; experiment: Test A: Inhibition of Arachidonic Acid Release from Zymosan Stimulated Macrophages; format: cell-based, mouse (female MF1); details: inhibition of arachidonic acid release, six concentrations (100, 50, 20, 10, 5 and 1 μM), 5 h with zymosan, read-out: Test A IC50
Experimental: Inhibition of Arachidonic Acid Release from Zymosan Stimulated Macrophaqes
Female MF1 mice (weighing 20 to 25 g) were killed using a rising concentration of CO2. The mice were laid on their backs and the abdomens wiped with 70% alcohol. The skin was pulled back, exposing the peritoneal wall. Medium A (5 ml) (see below) was injected into the peritoneal cavity of each mouse followed by approximately 1 ml of air using a 20 ml syringe and a 21 G×40 mm needle in order to form a suspension of macrophage cells. The medium and cells were then removed using a 19 G×40 mm needle. The resulting suspension was returned to a sterile beaker kept on ice. The extracts from all the mice were pooled and this pooled cell suspension was counted using a Coulter counter and adjusted to a final cell count of 1-1.3×10^6 cells/ml prior to labelling with [^3 H]-arachidonic acid. Typically five mice provided sufficient cells for each multiwell plate.
Sufficient [^3 H]-arachidonic acid in ethanol to give a final concentration of 1.6 μCi/ml (equivalent to 40 μCi/plate) was blown to dryness under nitrogen. The arachidonic acid was then resuspended in 1 or 2 ml of the cell suspension which was then mixed with the remainder of the cell suspension in a centrifuge bottle. The labelled cell suspension was then plated out into sterile plastic 96 flat-bottomed well plates (250 μl per well) and incubated overnight at 37° C. in a moist atmosphere of 5% CO2, 95% air.
The following day, non-adherent cells were removed by washing 3 times with sterile phosphate buffered saline (PBS). The adherent peritoneal macrophages were then cultured for a further 24 hours in the presence or absence of drugs, in medium B (see below) at 37° in a 5% CO2 atmosphere in order to measure the effects of drugs on the spontaneous release of arachidonic acid in the absence of stimulus. After this incubation, supernatants were removed to give media 1 and stored in sealed multi-well plates at 4° C. prior to scintillation counting. Drugs which potentiated spontaneous release of arachidonic acid (125% of controls) were deemed to be toxic at the concentration at which this phenomenon occurred. The supernatants were replaced by fresh medium C containing fresh drug and a stimulus. Three drugs were tested at six concentrations (100, 50, 20, 10, 5 and 1 μM) in replicates of four on each plate. The other wells contained controls consisting of a positive control (e.g. dexamethasone), medium (B) only and medium C only.
Incubation was then continued for a further 5 hours, whereupon the supernatants were collected to give media 2 and the adherent cells washed with PBS. The cells were then lysed with 100 μl of 0.1% TRITON® X100 in a 0.1% solution of bovine serum albumin in 0.9% saline and mechanically disrupted to give cell lysates. These supernatants (media 2) and cell lysates (Cells) were also stored in sealed multi-well plates at 4° C. prior to scintillation counting. 200 μl aliquots of media, or 100 μl aliquots of cells were counted using 2 ml of OPTIPHASE "HIGH SAFE" (Trademark of LKB) as scintillant.
The percentage of arachidonic acid released was calculated using the mean values for each group of 4 wells in the following equation. [formula] cpm=courts per minute
The value for the arachidonic acid release in the absence of stimulus (spontaneous, cpm of media 2) from cells which had been exposed to neither stimulus nor drug was subtracted from all equivalent values (cpm media 2, stimulated with or without drug) to give the net stimulated release. The percentage inhibition of arachidonic acid release caused by a drug may then be calculated using the following equation. [formula]
Compounds of formula I were tested at six concentrations (100, 50, 20, 10, 5 and 1 μM) and IC50 values calculated. Compounds with IC50 values<100 μM are considered to be active. Advantageous compounds have an IC50 value <50 μM.
Medium A (for peritoneal lavage) […]

Molecule	inhibition in vivo at 100 mg/kg [1] [%]	IC50 ([2]; Mus musculus, Macrophage, 5 h) [µM]	also measured
CC(C)(NCCCn1cncc1CO)c1ccc(Cl)cc1 [Example 88, 1-{3-[1-(4-Chlorophenyl)-1-methylethylamino]propyl}imidazol-5-yl-methanol dihydrochloride]	6	60	
CC(C)c1nccn1CCCNCc1ccc(Cl)cc1 [Example 71, N-(4-Chlorobenzyl)-3-(2-isopropylimidazol-1-yl)propylamine-dihydrochloride]	10	25	
CC(C)(NCCCCCn1ccnc1)c1ccc(Cl)cc1 [Example 62, N-[1-(4-chlorophenyl)-1-methylethyl]-5-(imidazol-1-yl)pentylamine]	42	21	
c1ccc(Oc2ccc(CNCCCn3ccnc3)cc2)cc1 [Example 39, 3-(Imidazol-1-yl)-N-(4-phenoxybenzyl)propylamine]	35	10	
CCC(CC)(NCCCn1ccnc1)c1ccc(Cl)cc1 [Example 76, 1-(4-Chlorophenyl)-1-ethyl-3'-(imidazol-1-yl)dipropylamine dihydrochloride]	31	15	
Cc1cn(CCCNCc2ccc(Cl)cc2)cn1 [Example 44, N-(4-Chlorobenzyl)-3-(4-methylimidazol-1-yl)propylamine dihydrochloride]	8	30	
CCOC(=O)c1c(C)ncn1CCCNC(C)(C)c1ccc(Cl)cc1 [Example 78, Ethyl 1-{3-[1-(4-chlorophenyl)-1-methylethylamino]propyl)-4-methylimidazole-5-carboxylate]	7	20	
CCC(c1ccc(Cl)cc1)N(C)CCCn1ccnc1 (stereo not drawn) [Example 91, N-[1-(4-chlorophenyl)propyl]-3-(imidazol-1-yl)-N-methylpropylamine]	58	62	
CC(C)(NCCCCn1ccnc1)c1ccc(Cl)cc1 [Example 89, N-[1-(4-chlorophenyl)-1-methylethyl]-4-(imidazol-1-yl)butylamine]	51	40	
c1ccc(C(NCCCn2ccnc2)c2ccccc2)cc1 [Example 34, N-benzhydryl-3-(imidazol-1-yl)propylamine dihydrochloride]	47	32	
CC(NCCCn1cnc(Cl)c1Cl)c1ccc(Cl)cc1 (stereo not drawn) [Example 67, N-[1-(4-Chlorophenyl)ethyl]-3-(4,5-dichloroimidazol-1-yl)propylaminesesquihydrochloride]	42	18	
CC(NCC(C)(C)Cn1ccnc1)c1ccc(Cl)cc1 (stereo not drawn) [Example 58, N-[1-(4-chlorophenyl)ethyl]-3-(imidazol-1-yl)-2,2-dimethylpropylamine]	79	55	
CC(NCCCn1ccnc1)c1ccc(Cl)c(C(F)(F)F)c1 (stereo not drawn) [Example 9, N-[1-(4-Chloro-3-trifluoromethylphenyl)ethyl]-3-(imidazol-1-yl)propylamine]	78	22	
CC(C)(NCCCn1cncc1CO)c1ccc(Cl)c(Cl)c1 [Example 84, 1-{3-[1-(3,4-Dichlorophenyl)-1-methylethylamino]propyl}imidazol-5-ylmethanol]	19	24	
CCc1nccn1CCCNCc1ccc(Cl)cc1 [Example 72, N-(4-Chlorobenzyl)-3-(2-ethylimidazol-1-yl)propylamine]	18	26	
CC(NCCCn1ccnc1)c1ccc(C(C)(C)C)cc1 (stereo not drawn) [Example 19, N-[1-(4-Tert-butylphenyl)ethyl]-3-(imidazol-1-yl)propylamine]	27	12	
Clc1ccc(C(NCCCn2ccnc2)c2ccccc2)cc1 (stereo not drawn) [Example 28, N-[α-(4-chlorophenyl)benzyl]-3-(imidazol-1-yl)propylamine]	48	11	
CC(NCCCCn1ccnc1)c1ccc(Cl)cc1 (stereo not drawn) [Example 26, N-[1-(4-Chlorophenyl)ethyl]-4-(imidazol-1-yl)butylamine]	40	56	
Cc1nccn1CCCNCc1ccc(Cl)cc1 [Example 43, N-(4-Chlorobenzyl)-3-(2-methylimidazol-1-yl)propylamine]	33	49	
Clc1ccc(CNCCCn2cnc(Cl)c2Cl)cc1 [Example 64, N-(4-chlorobenzyl)-3-(4,5-dichloroimidazol-1-yl)propylamine dihydrochloride]	30	18	
Cc1nc(C)n(CCCNC(C)c2ccc(Cl)cc2)c1C (stereo not drawn) [Example 66, N-[1-(4-Chlorophenyl)ethyl]-3-(2,4,5-trimethylimidazol-1-yl)propylamine]	13	13	
N-[1-(4-Chlorophenyl)ethyl]-3-(4/5-methylimidazol-1-yl)propylamine [Example 54]			Test B % inhibition at 100 mg/kg [1]: 63%; IC50 [2]: 12 µM
CCc1nccn1CCCNC(C)c1ccc(Cl)cc1 (stereo not drawn) [Example 53, N-[1-(4-Chlorophenyl)ethyl]-3-(2-ethylimidazol-1-yl)propylamine dihydrochloride]	27	31	
Cc1ccc(C(C)(C)NCCCn2ccnc2)cc1 [Example 75, 3-(Imidazol-1-yl)-N-[1-methyl-1-(p-tolyl)ethyl]propylamine dihydrochloride]	42	47	
CC(NCCCn1ccnc1)c1ccc(Cl)cc1.Cl.Cl (single isomer, unassigned; (-)) [Example 57, (-)N-[1-(4-Chlorophenyl)ethyl]-3-(imidazol-1-yl)propylamine dihydrochloride]			Test B % inhibition at 100 mg/kg ([1]; dihydrochloride): 48%; IC50 ([2]; dihydrochloride): 20 µM
CCOC(=O)c1ccc(C(C)(C)NCCCn2ccnc2)cc1 [Example 77, Ethyl 4-{1-[3-(imidazol-1-yl)propylamino]-1-methylethyl}benzoate]	23	82	
CC(NCCCn1ccnc1)c1ccc(Cl)c(F)c1 (stereo not drawn) [Example 10, N-[1-(4-Chloro-3-fluorophenyl)ethyl]-3-(imidazol-1-yl)propylamine dihydrochloride]	49	40	
